The term IC50 denotes the concentration that inhibits the measured activity by half. The low end stands for higher potency, the high end for lower potency. The term solubility denotes how much of the substance goes into solution per volume. Broadly, the LD50 is the dose at which mortality reaches 50%. Low values mean greater toxicity, high ones lower toxicity.

“And” between values parts separate entries of the source, which are not always exact repeats. Equal values may be shown once.

One series concerns Lewis lung cancer. Briefly: MTT cytotoxicity, Lewis lung cancer. The note with it: n = 6, Lewis lung cancer. The format is cell-based. The method, then:
(§1) Several kinds of tumor cells in exponential growth phase were prepared into single cell suspension, inoculated on 96 pore plat at the density of 4×10^4/hole, cultivated for 24 hours to enable to adhere to wall with 1640 culture medium containing 10% fetal calf serum (complete medium) at 37° C.; the final culture volume was 100 μl. Cell morphology was observed after culture for 24 hours.

Series [1] concerns colon cancer SW480. Briefly: In vivo antitumor activity, colon cancer SW480 in nude mice. The note with it: SW480 in male nude mice, once a week, 4 times, tumor weighed after 4 weeks. The text has this: The calculation formula of tumor inhabitation rate is: […]
Series [2] deals with Colon cancer SW480. The series can be described thus: MTT cytotoxicity, colon cancer SW480. Conditions: n = 6, Colon cancer SW480. In kind it is cell-based. The method, then: as §1
The subject of the next series is Lung cancer H292. The series can be described thus: MTT cytotoxicity, lung cancer H292. In kind it is cell-based. Conditions: n = 6, Lung cancer H292. The method, then: as §1
Another series relates to normal mice. Briefly: Acute toxic effect of platinum complex on normal mice (LD50, single intravenous administration). The format is in vivo, Kunming mice. Conditions: single intravenous administration in 5% glucose solution, 14 days observation, Bliss method. As for the experimental part: (§2) Kunming mice at 4˜6 weeks old and at the weight of 18˜22 g were taken, 50% male and 50% female. Embodiment platinum compound was dissolved with 5% glucose solution. […] Mortality and toxicity were observed after administration, totally observing 14 days, LD50 value was calculated with Bliss method according to mortality.

The test system of series [3] is Pulmonary epithelial cell BEAS-2B. Briefly: MTT cytotoxicity, pulmonary epithelial cell BEAS-2B. The format is cell-based. The note with it: n = 6, Pulmonary epithelial cell BEAS-2B. The method, then: as §1
The nature of a further series: physchem. Conditions: water.
Series [4] in a line: Acute toxic effect of platinum complex on normal mice (LD50, single intravenous administration). The format is in vivo, Kunming mice. The note with it: both sexes, Kunming, mouse, in vivo; single intravenous administration in 5% glucose solution, 14 days observation, Bliss method. The method, then: as §2
In another series the test system is Gastric cancer MGC803. Briefly: MTT cytotoxicity, gastric cancer MGC803. In kind it is cell-based. The note with it: n = 6, Gastric cancer MGC803. The method, then:
as §1

In another series the test system is Lung cancer A549. The series can be described thus: MTT cytotoxicity, lung cancer A549. The format is cell-based. Conditions: n = 6, Lung cancer A549. As for the experimental part: as §1
The test system of the next series is Esophagus cancer ECA109. The series can be described thus: MTT cytotoxicity, esophagus cancer ECA109. The format is cell-based. Conditions: n = 6, Esophagus cancer ECA109. As for the experimental part:
as §1

In series [5] the test system is Breast cancer MCF-7 Cisplatin resistance strain. Briefly: MTT cytotoxicity, breast cancer MCF-7 cisplatin resistance strain. The format is cell-based. The note with it: n = 6, Breast cancer MCF-7 Cisplatin resistance strain. As for the experimental part: as §1
In a further series the test system is Testis cell ST. Briefly: MTT cytotoxicity, testis cell ST. In kind it is cell-based. Conditions: n = 6, Testis cell ST. As for the experimental part: as §1
Series [6] deals with Breast cancer MCF-7. The series can be described thus: MTT cytotoxicity, breast cancer MCF-7. The note with it: n = 6, Breast cancer MCF-7. In kind it is cell-based. As for the experimental part: as §1
Series [7] has as its system breast cancer MCF-7. The series can be described thus: In vivo antitumor activity, breast cancer MCF-7 in nude mice. Conditions: MCF-7 in female nude mice, 30 mg (platinum)/kg, once a week, 4 times, tumor weighed 4 weeks later.

For the molecule `NC1CCCCC1N.O=C([O-])CC(CCCN1CCCCC1)C(=O)[O-].[Pt+2]` (racemic) [Compound 13, [2-(3-(1-piperidyl)propyl)-succinato].[Cis-(1,2-trans-cyclohexyldiamine)]platinum (II)], the 50% inhibitory concentration (IC50) in the series with Lewis lung cancer stood at 32 µM; with Colon cancer SW480 [2] it was 95 µM; with Lung cancer H292 it was 57 µM; in series [3], 12 µM. Further, the “Tumor inhibition rate (x ± SD)” value with colon cancer SW480 [1] (10 mg (platinum)/kg) is listed as 56.3 ± 6.81%. Moreover, the LD50 value in the series with normal mice is given as 0.542 mmol/kg.
For the molecule `NCCC(CC(=O)[O-])C(=O)[O-].N[C@@H]1CCCC[C@H]1N.[Pt+2]` (relative stereo) [Compound 9, [2-(2-aminoethyl)-succinato].[Cis-(1,2-trans-cyclohexyldiamine)]platinum (II)], the half-inhibitory concentration (IC50) in the series with Lewis lung cancer came to 84 µM; with Colon cancer SW480 [2], 62 µM; in the series on Lung cancer H292, 26 µM; in series [3] it was 17 µM. Further, the “Tumor inhibition rate (x ± SD)” value in the series with colon cancer SW480 [1] (10 mg (platinum)/kg) is reported as 44.8 ± 10.8%. The LD50 value with normal mice is 0.429 mmol/kg.
In “physchem”, `[NH2][Pt]1([NH2])[O]C(=O)CC(CCCN2CCCCC2)C(=O)[O]1` (stereo not drawn) [Compound 7, [2-(3-(1-piperidyl)-propyl)-succinato].[Cis-diamine]platinum (II)] had a solubility of 139 mg/mL. In addition, the LD50 at 14 days in [4] was determined as 623 µmol/kg.
For `CN(C)CCCC1CC(=O)[O][Pt]([NH2])([NH2])[O]C1=O` (stereo not drawn) [Compound 3, [2-(3-dimethylamino propyl)-succinato].[Cis-diamine]platinum (II)], in that order: 150 mg/mL and 521 µmol/kg.
For `[NH2][Pt]1([NH2])[O]C(=O)CC(CCCN2CCCC2)C(=O)[O]1` (stereo not drawn) [Compound 8, [2-(3-(1-pyrrolidyl)-propyl)-succinato].[Cis-diamine]platinum (II)], in that order: 135 mg/mL and 605 µmol/kg.
Take `CCN(CC)CCC(CC(=O)[O-])C(=O)[O-].NC1CCCCC1N.[Pt+2]` (racemic) [Compound 10, [2-(2-diethyl amino ethyl)-succinato].[Cis-(1,2-trans-cyclohexyldiamine)]platinum (II)]: the concentration for half-maximal inhibition (IC50) with Lewis lung cancer was found to be 28 µM; with Colon cancer SW480 [2], 5 µM; in the series with Lung cancer H292, 24 µM; in [3], 25 µM. Further, in the series on colon cancer SW480 [1] (10 mg (platinum)/kg), the “Tumor inhibition rate (x ± SD)” value was 55.1 ± 9.07%. This molecule also yielded an LD50 value in the series with normal mice of 0.595 mmol/kg.
On to `NCCCC1CC(=O)[O][Pt]([NH2])([NH2])[O]C1=O` (stereo not drawn) [Compound 4, [2-(3-amino propyl)-succinato].[Cis-diamine]platinum (II)], for which the concentration in solution in the series “physchem” (solubility) came to 155 mg/mL. Further, in [4], the LD50 at 14 days turned out to be 556 µmol/kg.
For `CCN(CC)CCCCC1CC(=O)[O][Pt]([NH2])([NH2])[O]C1=O` (stereo not drawn) [Compound 27, [2-(4-diethylamino butyl)-succinato].[Cis-diamine]platinum (II) acetate], in that order: 143 mg/mL and 557 µmol/kg.
For the molecule `CCNCCC1CC(=O)[O][Pt]2([NH]C3CCCCC3[NH]2)[O]C1=O` (stereo not drawn) [Compound 12, [2-(2-ethylamino ethyl)-succinato].[Cis-(1,2-trans-cyclohexyldiamine)]platinum (II)], the IC50 came to 69 µM in the series on Lewis lung cancer, 72 µM in the series with Colon cancer SW480 [2], 61 µM in the series with Lung cancer H292 and 57 µM in series [3]. For the same molecule, the “Tumor inhibition rate (x ± SD)” value in the series on colon cancer SW480 [1] (10 mg (platinum)/kg) is 46.8 ± 9.17%. Besides, the LD50 value in the series with normal mice is 0.602 mmol/kg.
With `CC(=O)NC(CC(=O)[O-])C(=O)[O-].NC1CCCCC1N.[Pt+2]` (centres unmarked) [Contrast Embodiment 1, reference compound], the half-inhibitory concentration (IC50) is 525 µM with Gastric cancer MGC803; 436 µM with Lung cancer A549; 545 µM in the series with Lewis lung cancer; 615 µM in the series with Colon cancer SW480 [2]; 253 µM and 353 µM and 365 µM in the series with Lung cancer H292; 467 µM in the series with Esophagus cancer ECA109. The IC50 was determined as 425 µM in [5], 239 µM in the series with Testis cell ST, 433 µM in series [3] and 632 µM with Breast cancer MCF-7 [6]. For the same molecule, the LD50 value in the series with normal mice stood at 0.092 mmol/kg.
In the series “physchem”, `CCCN(CCC)CCCC1CC(=O)[O][Pt]([NH2])([NH2])[O]C1=O` (stereo not drawn) [Compound 6, [2-(3-di-n-propylamino propyl)-succinato].[Cis-diamine]platinum (II)] came in with a solubility of 130 mg/mL. The same molecule gave an LD50 at 14 days in [4] of 449 µmol/kg.
Take `CN(C)CCCC1CC(=O)[O][Pt]2([NH]C3CCCCC3[NH]2)[O]C1=O` (stereo not drawn) [Compound 11, [2-(3-dimethylamino propyl)-succinato].[Cis-(1,2-trans-cyclohexyldiamine)]platinum (II)]: the IC50 in the series with Lewis lung cancer was found to be 51 µM; in the series with Colon cancer SW480 [2], 22 µM; with Lung cancer H292 it was 13 µM; in series [3], 45 µM. Also, the “Tumor inhibition rate (x ± SD)” value with colon cancer SW480 [1] (10 mg (platinum)/kg) stood at 46.3 ± 9.88%. Further, in the series on normal mice, the LD50 value was found to be 0.571 mmol/kg.
For `NC(CC(=O)[O-])C(=O)[O-].NC1CCCCC1N.[Pt+2]` (racemic) [ADP, [DL-2-amino-succinato].[trans-hexamethylenediamine]platinum (II), reference compound], the IC50 with Gastric cancer MGC803 was 160 µM; in the series on Lung cancer A549 it was 145 µM; in the series on Lewis lung cancer, 162 µM; with Colon cancer SW480 [2], 98 µM; with Lung cancer H292 it was 61 µM; with Esophagus cancer ECA109, 98 µM and 163 µM. Also, the IC50 in series [5] came out at 156 µM; in the series on Testis cell ST it was 187 µM; in series [3], 107 µM; in the series on Breast cancer MCF-7 [6] it was 73 µM. The “Tumor inhibition rate (x ± SD)” value in the series on breast cancer MCF-7 [7] is on record as 68.3 ± 10.27 9%; in the series on colon cancer SW480 [1] (30 mg (platinum)/kg), 45.3 ± 11.21%. Also, the LD50 value in the series with normal mice is on record as 0.332 mmol/kg.
On to `CCN(CC)CCC1CC(=O)[O][Pt]([NH2])([NH2])[O]C1=O` (stereo not drawn) [Compound 5, [2-(2-diethylaminoethyl)-succinato].[Cis-diamine]platinum (II)], for which, in the series “physchem”, the solubility is 166 mg/mL. Also, in series [4], the LD50 at 14 days worked out at 652 µmol/kg.

The record behind these values is patent publication US9175024B2, “Platinum compound having amino or alkylamino-containing succinic acid derivatives as leaving group, preparation method thereof, and use thereof” (BEIJING FSWELCOME TECHNOLOGY DEVELOPMENT CO., LTD., priority 2011, dated 2015).
